Data: patent publication US7384758B2, “Bioluminescent protease assay with modified aminoluciferin or derivatives thereof” (Promeaga Corporation, priority 2002, dated 2008)

Experiments:
[1] = tested on: thermostable firefly luciferase; assay: luminescent reaction with luciferin or aminoluciferin as luciferase substrate (FIG. 1); type: biochemical
Excerpt: FIG. 1 depicts relative light units (RLU) for luciferin or aminoluciferin as a substrate for a thermostable firefly luciferase in a luminescent reaction.

caspase 3 = biological target: T1, caspase 3 (Homo sapiens, UniProt P42574); assay: caspase titration in CHAPS or Thesit buffer formulations (Example 5); type: biochemical; settings: buffer containing either CHAPS or Thesit, FIG. 12
T1 construct: approximately 10 mU/ng protein with >75% in active conformation; purchased Upstate Biotech 14-264
T1 sequence (P42574 29-175 limits assumed): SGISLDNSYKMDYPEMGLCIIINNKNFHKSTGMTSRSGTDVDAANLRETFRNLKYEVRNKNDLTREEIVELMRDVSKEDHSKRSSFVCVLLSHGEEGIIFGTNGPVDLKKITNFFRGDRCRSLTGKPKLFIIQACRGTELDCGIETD
T1 sequence (P42574 176-277 limits assumed): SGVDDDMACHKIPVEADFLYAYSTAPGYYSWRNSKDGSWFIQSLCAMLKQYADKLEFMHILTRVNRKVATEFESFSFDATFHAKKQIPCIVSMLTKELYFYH
Method: To evaluate different assay component formulations for caspase-3 activity and to compare sensitivities of DEVD-aminoluciferin to DEVD-Rho-110 in those formulations, two stock solutions were prepared. As above, the DEVD-aminoluciferin/luciferase mixture is prepared and allowed to incubate overnight. One stock solution included a 1% solution of CHAPS buffer (Sigma, Catalog No. C-5070) and the other a 1% solution of Thesit (Pragmatics, Inc., Catalog No. S-22#9). The buffer formulations were as follows: 100 μl of HEPES (1 M stock, 50 mM final concentration), 10 μl of CaCl2 (1 M stock, 5 mM final concentration), 30 μl of MgSO4 (1 M stock, 15 mM final concentration), 8 μl of ATP (0.1 M stock, 400 μM final concentration), 8 μl of DEVD-aminoluciferin (10 mM stock, 40 μM final concentration), 38.4 μl of luciferase (5.2 mg/ml stock, 100 μg/ml final concentration) and 20 μl of prionex (10% stock, 0.1% final concentration) were combined in each of 2 tubes. Finally, 200 μl of either CHAPS or Thesit (1% stock, 0.1% final concentration) was added to one of the tubes. This was incubated overnight. […]
To one plate, 50 μl of DEVD-aminoluciferin/luciferase was added to each of the 6 wells containing each dilution (both CHAPS and Thesit treated). […] The plates were read at various times on a luminometer (Dynex) or a fluorimeter (Fluoroskan).

- Km ([1]; substrate for thermostable firefly luciferase, FIG. 1): 2000 nM
- light output as luciferin ([1]; under saturating conditions, relative to luciferin): about 60%
- limit of detection (caspase) (caspase 3): ~0.2 μU
SMILES: Nc1ccc2nc(C3=N[C@@H](C(=O)O)CS3)sc2c1 [aminoluciferin]
